From patent US20060247227A1, “Substituted piperidines as histamine h3 receptor ligands” (priority 2003, published 2006)
Structures can show the parent of a compound that is named as a salt.

Target: T1, histamine H3 receptor (Homo sapiens, UniProt Q9Y5N1)
T1 construct: expressed in transfected cells; host or cells: CHO K1 cells carrying pSwitch, transfected with pGeneH3 and induced with mifepristone; clone 3H3; membranes
Assay: Histamine H3 functional antagonist assay ([35S]GTPγS, SPA, membranes of CHO K1 cells expressing the receptor)
Type: biochemical
Settings: histamine-stimulated GTPγS binding, membranes with human H3
Source text: A membrane preparation containing histamine H3 receptors may be prepared in accordance with the following procedures:
(i) Generation of Histamine H3 Cell Line
DNA encoding the human histamine H3 gene (Huvar, A. et al. (1999) Mol. Pharmacol. 55(6), 1101-1107) was cloned into a holding vector, pCDNA3.1 TOPO (InVitrogen) and its cDNA was isolated from this vector by restriction digestion of plasmid DNA with the enzymes BamH1 and Not-1 and ligated into the inducible expression vector pGene (InVitrogen) digested with the same enzymes. The GeneSwitch™ system (a system where in transgene expression is switched off in the absence of an inducer and switched on in the presence of an inducer) was performed as described in U.S. Pat. Nos. 5,364,791; 5,874,534; and 5,935,934. Ligated DNA was transformed into competent DH5α E. coli host bacterial cells and plated onto Luria Broth (LB) agar containing Zeocin™ (an antibiotic which allows the selection of cells expressing the sh ble gene which is present on pGene and pSwitch) at 50 μg ml^−1. Colonies containing the re-ligated plasmid were identified by restriction analysis. DNA for transfection into mammalian cells was prepared from 250 ml cultures of the host bacterium containing the pGeneH3 plasmid and isolated using a DNA preparation kit (Qiagen Midi-Prep) as per manufacturers guidelines (Qiagen).
CHO K1 cells previously transfected with the pSwitch regulatory plasmid (InVitrogen) were seeded at 2×10e6cells per T75 flask in Complete Medium, containing Hams F12 (GIBCOBRL, Life Technologies) medium supplemented with 10% v/v dialysed foetal bovine serum, L-glutamine, and hygromycin ([…]), 24 hours prior to use. Plasmid DNA was transfected into the cells using Lipofectamine plus according to the manufacturers guidelines (InVitrogen). 48 hours post transfection cells were placed into complete medium supplemented with […] Zeocin™.
10-14 days post selection 10 nM Mifepristone (InVitrogen), was added to the culture medium to induce the expression of the receptor. 18 hours post induction cells were detached from the flask using ethylenediamine tetra-acetic acid (EDTA; 1:5000; InVitrogen), following several washes with phosphate buffered saline pH 7.4and resuspended in Sorting Medium containing Minimum Essential Medium (MEM), without phenol red, and supplemented with Earles salts and 3% Foetal Clone II (Hyclone). Approximately 1×10e7 cells were examined for receptor expression by staining with a rabbit polyclonal antibody, 4a, raised against the N-terminal domain of the histamine H3 receptor, incubated on ice for 60 minutes, followed by two washes in sorting medium. Receptor bound antibody was detected by incubation of the cells for 60 minutes on ice with a goat anti rabbit antibody, conjugated with Alexa 488 fluorescence marker (Molecular Probes). Following two further washes with Sorting Medium, cells were filtered through a 50 μm Filcon™ (BD Biosciences) and then analysed on a FACS Vantage SE Flow Cytometer fitted with an Automatic Cell Deposition Unit. Control cells were non-induced cells treated in a similar manner. Positively stained cells were sorted as single cells into 96-well plates, containing Complete Medium containing 500 μg ml^−1 Zeocin™ and allowed to expand before reanalysis for receptor expression via antibody and ligand binding studies. One clone, 3H3, was selected for membrane preparation.
(ii) Membrane Preparation from Cultured Cells
All steps of the protocol are carried out at 4° C. and with pre-cooled reagents. The cell pellet is resuspended in 10 volumes of buffer A2 containing 50 mM N-2-hydroxyethylpiperazine-N′-2-ethanesulfonic acid (HEPES) (pH 7.40) supplemented with […] leupeptin (acetyl-leucyl-leucyl-arginal; Sigma L2884), 25 μg/ml bacitracin (Sigma B0125), 1 mM ethylenediamine tetra-acetic acid (EDTA), 1 mM phenylmethylsulfonyl fluoride (PMSF) and 2×10e-6M pepstain A (Sigma). […]

T1 sequence (Q9Y5N1 whole entry): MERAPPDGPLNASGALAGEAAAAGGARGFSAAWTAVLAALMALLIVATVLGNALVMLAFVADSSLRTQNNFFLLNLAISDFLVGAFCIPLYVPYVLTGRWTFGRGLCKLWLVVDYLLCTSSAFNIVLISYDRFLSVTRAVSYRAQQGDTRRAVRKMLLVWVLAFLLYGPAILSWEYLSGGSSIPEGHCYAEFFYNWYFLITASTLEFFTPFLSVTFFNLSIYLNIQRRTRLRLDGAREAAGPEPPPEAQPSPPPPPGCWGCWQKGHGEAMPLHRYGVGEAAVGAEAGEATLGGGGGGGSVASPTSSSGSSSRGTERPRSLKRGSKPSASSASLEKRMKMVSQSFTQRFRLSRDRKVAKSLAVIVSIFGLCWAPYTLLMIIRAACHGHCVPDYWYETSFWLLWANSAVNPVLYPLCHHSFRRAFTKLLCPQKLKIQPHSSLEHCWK

Compound	Ki [nM]
CC(C)N1CCC(OC2CCN(c3ccc(C(=O)N4CCOCC4)cn3)CC2)CC1 [Example E53]	< 10
CNC(=O)c1ccc(N2CCC(OC3CCN(C4CCC4)CC3)CC2)nc1 [Example E54]	≤ 1
CN(C)C(=O)c1ccc(N2CCC(OC3CCN(C4CCC4)CC3)CC2)nc1 [Example E55]	≤ 1
O=C(c1ccc(N2CCC(OC3CCN(C4CCC4)CC3)CC2)nc1)N1CCCC1 [Example E56]	≤ 1
O=C(c1ccc(N2CCC(OC3CCN(C4CCC4)CC3)CC2)nc1)N1CCOCC1 [Example E57]	≤ 1
CNC(=O)c1cccc(N2CCC(OC3CCN(C(C)C)CC3)CC2)n1 [Example E58]	< 10
CC(C)N1CCC(OC2CCN(c3cccc(C(=O)N4CCCC4)n3)CC2)CC1 [Example E60]	< 10
CC(C)N1CCC(OC2CCN(c3cccc(C(=O)N4CCOCC4)n3)CC2)CC1 [Example E61]	< 10
CNC(=O)c1cccc(N2CCC(OC3CCN(C4CCC4)CC3)CC2)n1 [Example E62]	≤ 1
CN(C)C(=O)c1cccc(N2CCC(OC3CCN(C4CCC4)CC3)CC2)n1 [Example E63]	< 10
O=C(c1cccc(N2CCC(OC3CCN(C4CCC4)CC3)CC2)n1)N1CCCC1 [Example E64]	< 10
O=C(c1cccc(N2CCC(OC3CCN(C4CCC4)CC3)CC2)n1)N1CCOCC1 [Example E65]	< 10
CC(C)NC(=O)c1cc(N2CCC(OC3CCN(C4CCC4)CC3)CC2)ccn1 [Example E67]	< 10
O=C(c1cc(N2CCC(OC3CCN(C4CCC4)CC3)CC2)ccn1)N1CCCCC1 [Example E69]	< 10
CNC(=O)c1cnc(N2CCC(OC3CCN(C4CCC4)CC3)CC2)cn1 [Example E70, 5-(4-[(1-Cyclobutyl-4-piperidinyl)oxy]-1-piperidinyl}-N-methyl-2-pyrazinecarboxamide butanedioate]	≤ 1
CCNC(=O)c1cnc(N2CCC(OC3CCN(C4CCC4)CC3)CC2)cn1 [Example E71]	≤ 1
CCCNC(=O)c1cnc(N2CCC(OC3CCN(C4CCC4)CC3)CC2)cn1 [Example E72]	≤ 1
CC(C)NC(=O)c1cnc(N2CCC(OC3CCN(C4CCC4)CC3)CC2)cn1 [Example E73]	≤ 1
O=C(NC1CCC1)c1cnc(N2CCC(OC3CCN(C4CCC4)CC3)CC2)cn1 [Example E74]	≤ 1
CNC(=O)c1cnc(N2CCC(OC3CCN(C(C)C)CC3)CC2)cn1 [Example E75]	≤ 1
CCNC(=O)c1cnc(N2CCC(OC3CCN(C(C)C)CC3)CC2)cn1 [Example E76]	≤ 1
CCCNC(=O)c1cnc(N2CCC(OC3CCN(C(C)C)CC3)CC2)cn1 [Example E77]	≤ 1

Compound	Ki [nM]
CC(C)NC(=O)c1cnc(N2CCC(OC3CCN(C(C)C)CC3)CC2)cn1 [Example E78]	≤ 1
CC(C)N1CCC(OC2CCN(c3cnc(C(=O)NC4CCC4)cn3)CC2)CC1 [Example E79]	≤ 1
CC(C)N1CCC(OC2CCN(c3ccc(C#N)nc3)CC2)CC1 [Example E80, 5-(4-{[1-(1-Methylethyl)-4-piperidinyl]oxy)-1-piperidinyl)-2-pyridinecarbonitrile hydrochloride]	≤ 1
CC(C)N1CCC(OC2CCN(c3ccc(C(F)(F)F)nc3)CC2)CC1 [Example E81, 5-{4-[(1-Methylethyl-4-piperidinyl)oxy]-1-piperidinyl}-2-(trifluoromethyl)pyridine hydrochloride]	≤ 1
FC(F)(F)c1ccc(N2CCC(OC3CCN(C4CCC4)CC3)CC2)nn1 [Example E82, 3-{4-[(1-Cyclobutyl-4-piperidinyl)oxy]-1-piperidinyl}-6-(trifluoromethyl)pyridazine hydrochloride]	< 0.316
CC(C)N1CCC(OC2CCN(c3ccc(C(F)(F)F)nn3)CC2)CC1 [Example E83, 3-(4-{[1-(1-Methylethyl)-4-piperidinyl]oxy}-1-piperidinyl)-6-(trifluoromethyl)pyridazine]	< 10
FC(F)(F)c1cnc(N2CCC(OC3CCN(C4CCC4)CC3)CC2)cn1 [Example E84, 2-{4-[(1-Cyclobutyl-4-piperidinyl)oxy]-1-piperidinyl}-5-(trifluoromethyl)pyrazine hydrochloride]	≤ 1
CC(C)N1CCC(OC2CCN(c3cnc(C(F)(F)F)cn3)CC2)CC1 [Example E85, 2-(4-[1-(1-Methylethyl)-4-piperidinyl]oxy}-1-piperidinyl)-5-(trifluoromethyl)pyrazine hydrochloride]	≤ 1
FC(F)(F)c1ccc(N2CCC(OC3CCN(C4CCC4)CC3)CC2)nc1 [Example E86, 2-{4-[(1-Cyclobutyl-4-piperidinyl)oxy]-1-piperidinyl}-5-(trifluoromethyl)pyridine hydrochloride]	≤ 1
CC(C)N1CCC(OC2CCN(c3ccc(C(F)(F)F)cn3)CC2)CC1 [Example E87, 2-(4-{[1-(1-Methylethyl)-4-piperidinyl]oxy}-1-piperidinyl)-5-(trifluoromethyl)pyridine hydrochloride]	< 10
FC(F)(F)c1ncc(N2CCC(OC3CCN(C4CCC4)CC3)CC2)cn1 [Example E88, 5-{4-[(1-Cyclobutyl-4-piperidinyl)oxy]-1-piperidinyl}-2-(trifluoromethyl)pyrimidine]	< 0.316
CC(C)N1CCC(OC2CCN(c3cnc(C(F)(F)F)nc3)CC2)CC1 [Example E89, 5-(4-{[1-(1-Methylethyl)-4-piperidinyl]oxy}-1 piperidinyl)-2-(trifluoromethyl) pyrimidine]	≤ 1
CCC(=O)c1ccc(N2CCC(OC3CCN(C4CCC4)CC3)CC2)cc1 [Example E90, 1-(4-{4-[(1-Cyclobutyl-4-piperidinyl)oxy]-1-piperidinyl}phenyl)-1-propanone]	≤ 1
O=C(c1ccc(N2CCC(OC3CCN(C4CCC4)CC3)CC2)cc1)C1CC1 [Example E91]	≤ 1
CC(=O)c1ccc(N2CCC(OC3CCN(C4CCC4)CC3)CC2)nc1 [Example E93, 1-(6-{4-[(1-Cyclobutyl-4-piperidinyl)oxy]-1-piperidinyl}-3-pyridinyl)ethanone]	≤ 1
Cc1ccc2cc(N3CCC(OC4CCN(C5CCC5)CC4)CC3)ccc2n1 [Example E94, 6-{4-[(1-Cyclobutyl-4-piperidinyl)oxy]-1-piperidinyl}-2-methylquinoline hydrochloride]	≤ 1
CC(C)N1CCC(OC2CCN(c3ccc(C(=O)OC(C)(C)C)nc3)CC2)CC1 [Example E95, 1,1-Dimethylethyl 5-(4-{[1-(1-methylethyl)-4-piperidinyl]oxy}-1-piperidinyl)-2-pyridinecarboxylate]	≤ 1
CC(C)(C)OC(=O)c1ccc(N2CCC(OC3CCN(C4CCC4)CC3)CC2)cn1 [Example E96, 1,1-Dimethylethyl 5-{4-[(1-cyclobutyl-4-piperidinyl)oxy]-1-piperidinyl}-2-pyridinecarboxylate]	≤ 1
CC(=O)c1ccc(N2CCC(OC3CCN(C(C)C)CC3)CC2)cc1 [Example E97, 1-[4-(4-{[1-(Methylethyl)-4-piperidinyl]oxy}-1-piperidinyl)phenyl]ethanone]	≤ 1
CC(=O)Nc1ccc(N2CCC(OC3CCN(C4CCC4)CC3)CC2)cc1F [Example E98, N-(4-{4-[(1-Cyclobutyl-4-piperidinyl)oxy]-1-piperidinyl}-2-fluorophenyl)acetamide hydrochloride]	≤ 1
CC[C@H](C)N1CCC(OC2CCN(c3ccc(C(C)=O)cc3)CC2)CC1 [Example E101]	≤ 1
CC[C@@H](C)N1CCC(OC2CCN(c3ccc(C(C)=O)cc3)CC2)CC1 [Example E102]	≤ 1
